# Data from ChEMBL document CHEMBL1201862, “PubChem BioAssay data set” (2004).
# Activity calls are given as the source filed them.
# What was measured:
# [1] = NIH-3T3 fibroblast cytotoxicity, dose response, cytotoxicity control, cell-based, fluorescence, Alamar Blue, secondary assay (AID 2327); type: functional;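 note: NIH-3T3 mouse fibroblasts cultured with fluconazole at 8 µg/mL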
# [2] = target: T1, RNA-binding protein pos-1 (Caenorhabditis elegans, UniProt G5EF15); experiment: inhibitors of POS-1/mex-3 RNA binding, dose response, biochemical, fluorescence polarization (AID 1964);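 note: purified POS-1 fused to maltose binding protein made in E. coli; potency of compounds blocking POS-1 binding to fluorescent RNA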
# T1 sequence (G5EF15 whole entry): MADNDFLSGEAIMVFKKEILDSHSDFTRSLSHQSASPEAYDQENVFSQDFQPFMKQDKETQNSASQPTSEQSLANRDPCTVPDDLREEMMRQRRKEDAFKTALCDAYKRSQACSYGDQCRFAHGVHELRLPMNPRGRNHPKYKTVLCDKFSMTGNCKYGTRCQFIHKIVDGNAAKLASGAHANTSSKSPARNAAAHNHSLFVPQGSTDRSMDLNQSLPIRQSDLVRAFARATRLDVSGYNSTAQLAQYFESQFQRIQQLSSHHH
# [3] = system: Streptococcus sp. 'group A'; experiment: growth inhibition of control SK(-) GAS strain, dose response, counter-screen for streptokinase expression inhibitor project, luminescence, kanamycin, BacTiterGlo, confirmation (AID 1900); type: functional, organism-based
# [4] = target: T2, Zinc finger protein mex-5 (Caenorhabditis elegans, UniProt Q9XUB2); experiment: MEX-5/TCR-2 RNA interaction inhibitors, dose response, biochemical, C. elegans, fluorescence polarization (AID 1960)
# T2 sequence (Q9XUB2 whole entry): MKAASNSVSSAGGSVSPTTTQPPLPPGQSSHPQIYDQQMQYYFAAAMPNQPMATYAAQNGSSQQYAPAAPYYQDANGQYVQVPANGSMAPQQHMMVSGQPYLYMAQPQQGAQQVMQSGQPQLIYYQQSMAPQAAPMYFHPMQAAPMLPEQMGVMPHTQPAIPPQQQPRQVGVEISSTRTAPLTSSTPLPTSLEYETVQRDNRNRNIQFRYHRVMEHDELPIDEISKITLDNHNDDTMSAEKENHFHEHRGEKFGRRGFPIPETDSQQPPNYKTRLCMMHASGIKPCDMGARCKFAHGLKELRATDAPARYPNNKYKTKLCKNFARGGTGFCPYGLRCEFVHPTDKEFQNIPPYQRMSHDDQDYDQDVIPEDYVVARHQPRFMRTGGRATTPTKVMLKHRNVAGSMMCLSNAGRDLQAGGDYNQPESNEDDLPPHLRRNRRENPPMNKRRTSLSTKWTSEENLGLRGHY
# Streptokinase A = target: T3, Streptokinase A (Streptococcus pyogenes serotype M1, UniProt P10520); experiment: S. pyogenes streptokinase expression inhibitors, potency, dose response, plasminogen activation absorbance, OD405 (AID 1914); type: functional, Streptococcus pyogenes M1 GAS;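 note: secreted streptokinase activity via plasminogen activation per viability signal from cell pellet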
# T3 sequence (P10520 whole entry): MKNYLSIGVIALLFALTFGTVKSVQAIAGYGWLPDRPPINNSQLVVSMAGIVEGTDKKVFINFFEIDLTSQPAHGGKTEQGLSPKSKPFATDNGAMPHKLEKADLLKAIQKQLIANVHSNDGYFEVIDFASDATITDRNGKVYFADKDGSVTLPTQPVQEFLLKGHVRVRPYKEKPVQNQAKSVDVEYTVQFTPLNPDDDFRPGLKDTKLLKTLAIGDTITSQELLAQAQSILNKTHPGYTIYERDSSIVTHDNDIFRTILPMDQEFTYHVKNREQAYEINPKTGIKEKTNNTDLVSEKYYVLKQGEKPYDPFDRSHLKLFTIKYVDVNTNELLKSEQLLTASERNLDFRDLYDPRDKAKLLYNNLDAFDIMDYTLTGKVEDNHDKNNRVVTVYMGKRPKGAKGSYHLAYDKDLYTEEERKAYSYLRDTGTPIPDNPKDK
# [5] = C. albicans growth with fluconazole, confirmation, fluorescence, retest (AID 2467); type: functional, cell-based
# Streptococcus = experiment: Group A Streptococcus viability loss, dose response, counter-screen for streptokinase expression inhibitor project, luminescence, BacTiterGlo (AID 1915); type: functional, organism-based;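 note: potency for reduction of bacterial viability or growth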
# [6] = target: Heat shock protein HSP 90-alpha (Homo sapiens, UniProt P07900); type: functional, organism-based
# Vero = Vero cell cytotoxicity, cytotoxicity control for flavivirus capping enzyme inhibitors (AID 588742); type: functional; conditions: Chlorocebus sabaeus
# Genome polyprotein = Genome polyprotein (dengue virus type 2, UniProt P29990); experiment: Dengue-2 NS5 methyltransferase inhibitors, primary screen, biochemical, confirmation dose response (AID 588689); type: functional
# [7] = CRF-BP/CRF-R2 complex antagonists, dose response, cell-based, uHTS hits, 384-well (AID 651639); type: functional, Homo sapiens; conditions: read-out: IC50_Mean
# [8] = Shn3 3'UTR reporter inhibitors, dose response, cell-based, Clone20 osteoblasts, firefly luciferase, cherry-picked (AID 624132); type: functional;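 note: firefly luciferase luminescence from reporter carrying the Shn3 3'UTR in osteoblasts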
# [9] = HepG2 cell cytotoxicity, dose response, cytotoxicity control for Shn3 inhibitor project, CellTiter-Glo, cherry-picked (AID 624134); type: functional, cell-based
# [10] = control 3'UTR Renilla luciferase suppression, dose response, counter-screen for Shn3 inhibitor project, cell-based, Clone20-Shn3RL, cherry-picked (AID 624133); type: functional
# [11] = target: T4, Corticotropin-releasing factor receptor 2/Corticotropin-releasing factor-binding protein (Homo sapiens, UniProt P24387+Q13324); experiment: Dose Response confirmation of uHTS hits for small molecule antagonists of the CRF-binding protein and CRF-R2 receptor complex.; type: functional; conditions: read-out: IC50_Mean
# T4 sequence (Q13324 whole entry): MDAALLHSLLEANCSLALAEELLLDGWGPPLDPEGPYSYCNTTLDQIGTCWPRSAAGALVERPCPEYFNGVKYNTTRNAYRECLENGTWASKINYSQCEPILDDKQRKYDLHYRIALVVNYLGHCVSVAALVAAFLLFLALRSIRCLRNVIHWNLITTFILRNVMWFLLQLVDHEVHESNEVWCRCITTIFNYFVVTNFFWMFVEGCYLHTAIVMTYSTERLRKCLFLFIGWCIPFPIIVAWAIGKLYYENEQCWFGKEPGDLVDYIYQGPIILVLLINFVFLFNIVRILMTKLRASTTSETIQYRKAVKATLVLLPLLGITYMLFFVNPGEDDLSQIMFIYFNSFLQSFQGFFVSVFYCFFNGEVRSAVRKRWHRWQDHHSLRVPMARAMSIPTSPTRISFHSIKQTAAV
# T4 sequence (P24387 whole entry): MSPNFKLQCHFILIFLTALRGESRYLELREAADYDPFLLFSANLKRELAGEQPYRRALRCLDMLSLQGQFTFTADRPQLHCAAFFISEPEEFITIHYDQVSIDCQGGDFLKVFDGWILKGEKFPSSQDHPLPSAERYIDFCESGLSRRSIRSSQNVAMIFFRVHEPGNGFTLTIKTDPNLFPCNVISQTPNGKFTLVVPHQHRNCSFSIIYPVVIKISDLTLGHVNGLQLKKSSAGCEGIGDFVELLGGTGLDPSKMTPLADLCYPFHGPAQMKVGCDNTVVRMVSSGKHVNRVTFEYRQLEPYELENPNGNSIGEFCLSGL
# [12] = target: T4, Corticotropin-releasing factor receptor 2/Corticotropin-releasing factor-binding protein; experiment: activators of CRF receptor 2 with binding protein – uHTS hits, confirmation (AID 602473); type: functional; conditions: read-out: EC50_Mean
# [13] = target: T5, Carboxy-terminal domain RNA polymerase II polypeptide A small phosphatase 1 (Homo sapiens, UniProt Q9GZU7); experiment: inhibitors of CTDSP1, concentration-response testing, biochemical assay, absorbance-based, actives from ultra-high-throughput screening (AID 540297); type: functional
# T5 sequence (Q9GZU7 whole entry): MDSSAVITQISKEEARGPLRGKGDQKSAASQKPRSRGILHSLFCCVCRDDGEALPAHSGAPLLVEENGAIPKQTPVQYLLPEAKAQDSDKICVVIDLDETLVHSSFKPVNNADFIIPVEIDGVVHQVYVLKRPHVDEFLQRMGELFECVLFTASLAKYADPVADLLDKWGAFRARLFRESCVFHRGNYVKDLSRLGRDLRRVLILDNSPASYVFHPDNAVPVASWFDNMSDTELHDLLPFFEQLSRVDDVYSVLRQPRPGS
smiles,measurement,setting,value
CC(C)C1Nc2c(O)cc(Cl)c([N+](=O)[O-])c2C2C=CCC21 (centres undefined),EC50,[1],21.9 µM (inconclusive)
same,EC50,[2],> 300 µM (not active)
same,EC50,[3],3.07 µM (active)
same,EC50,[4],58.5 µM (active)
same,EC50,Streptokinase A,> 150 µM (not active)
same,EC50,[5],0.227 µM (active)
same,EC50,Streptococcus,6.36 µM (active)
same,AC50,[6],8.49 µM (active)
same,CC50,Vero,27.8 µM (active)
same,IC50,Genome polyprotein,68.9 µM (active)
COc1cc(N=C(S)NCCC(c2ccccc2)c2ccccc2)c(OC)cc1Cl,IC50,[7],> 20 µM (inactive)
CCOC(=O)c1c2c(n(-c3ccc(OC)cc3)c1C)C(=O)C(=O)c1ccccc1-2,CC50,Vero,2.89 µM (active)
same,IC50,Genome polyprotein,47 µM (active)
same,AC50,[8],3.15 µM (active)
same,AC50,[9],3.74 µM (active)
same,AC50,[10],3 µM (active)
Cc1ccc(C)c(N2CCN(S(=O)(=O)c3ccc4c(c3)C(C)(C)C(=O)N4C)CC2)c1,IC50,[11],38.6 µM (active)
same,EC50,[12],> 53 µM (inactive)
same,IC50,[7],9.45 µM (active)
Cc1ccc(/C=N/n2c(S)nnc2-c2cccc(Cl)c2)o1,IC50,[11],< 0.368 µM (active)
same,EC50,[12],> 53 µM (inactive)
same,IC50,[7],> 20 µM (inactive)
C/C(=N\NC(=O)c1ccccc1O)c1ccc(NC(=O)c2ccccc2)cc1,IC50,[13],7.56 µM (active)
O=C(/C=C/c1ccco1)NCC(=O)N/N=C/c1ccc([N+](=O)[O-])cc1,IC50,[13],5.25 µM (active)
